Holding throughout (format): cell-based
One experiment deals with Moraxella catarrhalis. Description: MIC, Mueller-Hinton broth supplemented with hemin and NAD. The settings on record: 24 hours, 37° C., 5×10^4 CFU/well. How it is done:
(§1) The following results were obtained on a standard in-vitro test system. The activity is described in terms of the minimum inhibitory concentration (MIC) determined by the agar-dilution technique with an inoculum size of 10^4 CFU/spot. Typically, compounds are active in the range 0.01 to 256 μg/ml.
(§2) Streptococci and enterococci were tested on agar supplemented with 5% defibrinated horse blood, an inoculum of 10^4 CFU/spot and an incubation temperature of 37° C. in an atmosphere of 5% carbon dioxide for 48 hours—blood is required for the growth of some of the test organisms. Fastidious Gram negative organisms were tested in Mueller-Hinton broth, supplemented with hemin and NAD, grown aerobically for 24 hours at 37° C., and with an innoculum of 5×10^4 CFU/well.

For the next experiment, the system named is Haemophilus influenzae. The experiment is described as above. The settings on record: 24 hours, 37° C., 5×10^4 CFU/well. Here is the method:
as §1, §2

In experiment [1] the test system is Staphylococcus aureus MRQR (methicillin resistant and quinolone resistant). Description: MIC, agar-dilution, standard in-vitro test system. The settings on record: 10^4 CFU/spot, 37° C., 24 hours. Here is the method:
as §1
(§3) Staphylococci were tested on agar, using an inoculum of 10^4 CFU/spot and an incubation temperature of 37° C. for 24 hours—standard test conditions for the expression of methicillin resistance.

In experiment [2] the test system is Staphylococcus aureus MSQS (methicillin sensitive and quinolone sensitive). Kind of experiment: MIC, agar-dilution, standard in-vitro test system. Conditions: 10^4 CFU/spot, 37° C., 24 hours. How it is done: as §1, §3
A further experiment has as its system Enterococcus faecium. Description: MIC, agar supplemented with 5% defibrinated horse blood. The settings on record: agar + 5% horse blood, 10^4 CFU/spot, 37° C., 5% carbon dioxide, 48 hours. How it is done:
as §1, §2

Experiment [3] relates to Linezolid Resistant Streptococcus pneumoniae. Described as above. Conditions: agar + 5% horse blood, 48 hours. How it is done:
as §1, §2

The subject of a further experiment is Streptococcus pneumoniae. The experiment is described as above. Conditions: agar + 5% horse blood, 10^4 CFU/spot, 37° C., 5% carbon dioxide, 48 hours. How it is done: as §1, §2

SMILES strings stand for the structures. In brackets after ≈: the same amount, converted by molar mass.

In the case of `Cn1nnc(-c2ccc(-c3ccc(N4C[C@H](CNc5ccon5)OC4=O)cc3F)cn2)n1` [Example 2], the MIC turned out to be 0.5 µg/mL (≈ 1.15 µM) against Moraxella catarrhalis; 64 µg/mL (≈ 147 µM) against Haemophilus influenzae; 0.5 µg/mL (≈ 1.15 µM) in experiment [1]; 0.5 µg/mL (≈ 1.15 µM) in experiment [2]; 0.5 µg/mL in the experiment with Enterococcus faecium; 2 µg/mL in experiment [3]. In addition, the MIC in the experiment with Streptococcus pneumoniae was 0.13 µg/mL.

For the origin of these results see US20060116389A1, “Antibacterial oxazolidinones” (ASTRA ZENECA AB, priority 2002, published 2006).
